Article PMC3032679 (Journal of Translational Medicine, 2011)
Entries after “also recorded” stand apart in the source; their conditions may differ. Peptide text beside a SMILES is read from it.

How the values were obtained:
HEK293T cells = experiment: Cell viability assay, HEK293T; type: cell-based, human; details: Antp-TPR; normal cells HEK293T; mean of three independent experiments each in triplicate; 72 h (Figure 2)
Source text: (§1) The following human tumor and normal cell lines were obtained from the American Type Culture Collection (ATCC): human breast cancer (BT-20, T47D, and MDA-MB-231), lung cancer (A549), kidney cancer (Caki-1), prostate cancer (LNCap), gastric cancer (OE19) and lung fibroblast (MRC5). Human pancreatic cancer cell line (BXPC3) was purchased from the European Collection of Cell Culture (ECACC). Human embryonic kidney cell line (HEK293T) and human normal pancreatic epithelial (PE) cell line ACBRI 515 were purchased from RIKEN cell bank and DS Pharma Biomedical, respectively. Cells were cultured in RPMI-1640 (BT-20, MDA-MB-231, T47D, LNCap, OE19, and BXPC3), MEM (MRC5 and A549), DMEM (HEK293T and Caki-1) or CSC (PE) containing 10% fetal bovine serum (FBS), 100 μg/ml penicillin, and 100 μg/ml streptomycin.
(§2) Cells were seeded on to 96-well plates at 2000-3000 cells/well and incubated with the test peptide. After incubation, an assay for cell viability was carried out using Living Cell Count Reagent SF (Nacalai Tesque) according to the manufacturer's protocol. Absorbance was measured at a wavelength of 450 nm using a 96-well microplate reader (GE Healthcare).
(§3) Data represent the mean ± SD from experiments performed in triplicate.

PE cells = experiment: Cell viability assay, PE; type: cell-based, human; details: Antp-TPR; normal cells PE; mean of three independent experiments each in triplicate; 72 h (Figure 2)
Source text: as §1, §2, §3

BT20 cells = experiment: Cell viability assay, BT20; type: cell-based, human; details: Antp-TPR; breast cancer BT20; mean of three independent experiments each in triplicate; 72 h (Figure 2)
Source text: as §1, §2, §3

MDA-MB-231 cells = experiment: Cell viability assay, MDA-MB-231; type: cell-based, human; details: Antp-TPR; breast cancer MDA-MB-231; mean of three independent experiments each in triplicate; 72 h (Figure 2)
Source text: as §1, §2, §3

BXPC3 cells = experiment: Cell viability assay, BXPC3; type: cell-based, human; details: Antp-TPR; pancreatic cancer BXPC3; mean of three independent experiments each in triplicate; 72 h (Figure 2)
Source text: as §1, §2, §3

A549 cells = experiment: Cell viability assay, A549; type: cell-based, human; details: Antp-TPR; lung cancer A549; mean of three independent experiments each in triplicate; 72 h (Figure 2)
Source text: as §1, §2, §3

liver, kidney, and lung = experiment: Histologic examination of organs (H & E); type: in vivo, athymic nude mice; details: 5 mg/kg i.v., nine times, versus saline
Source text: (A) BXPC3 pancreatic cancer cells were implanted subcutaneously into athymic nude mice. […] Each group had six animals (n = 6), and experiments were repeated twice. Data are expressed as mean ± SD. […] Scale bars, 25 μm. (C) Histologic examination after treatment with Antp-TPR hybrid peptide.

[1] = Observation of behavior and appetite after treatment; type: in vivo; details: mice
MRC5 cells = details: Antp-TPR; normal cells MRC5; mean of three independent experiments each in triplicate; 72 h (Figure 2)
Source text: as §1, §2, §3

Caki-1 cells = details: Antp-TPR; renal cancer Caki-1; mean of three independent experiments each in triplicate; 72 h (Figure 2)
Source text: as §1, §2, §3

LNcap cells = details: Antp-TPR; prostate cancer LNcap; mean of three independent experiments each in triplicate; 72 h (Figure 2)
Source text: as §1, §2, §3

OE19 cells = details: Antp-TPR; gastric cancer OE19; mean of three independent experiments each in triplicate; 72 h (Figure 2)
Source text: as §1, §2, §3

[2] = system: normal human cell lines (HEK293T, MRC5, and PE); experiment: Cell viability assay, normal cell lines (panel); details: identical concentrations, 72 h
Source text: as §1, §2, §3

[3] = system: normal and cancer cell lines; experiment: Cell viability assay, normal and cancer cell lines (panel); type: cell-based, human; details: 72 h
Source text: as §1, §2, §3

[4] = system: interaction of Hsp90 with the TPR2A domain of Hop; experiment: SPR competition: Hsp90 binding to TPR2A domain of Hop; type: biochemical, human; details: Hsp90 1 μM over immobilized TPR2A (5000 RU), peptide 1.4, 14, 140, 280, 700 μM and 1 mM
Method: To confirm the presence of purified protein, SDS/PAGE was performed according to the method of Laemmli.
SPR experiments were performed with the Biacore biosensor 3000 system as described previously. Human recombinant Hop, FKBP5, PP5, and purified TPR2A domain of Hop proteins were immobilized on the surface of CM5 sensor chips via N-hydroxysuccinimide and N-ethyl-N'-(dimethylaminopropyl)carbodiimide activation chemistry according to the manufacturer's instructions. Biotin-conjugated TPR peptide (biotin-TPR) was immobilized on the surface of streptavidin (SA) sensor chip. […] HBS-EP buffer (0.01 M Hepes/0.15 M NaCl/0.005% Tween 20/3 mM EDTA, pH 7.4) was used as a running buffer during the assay to inhibit non-specific binding. Data analysis was performed using BIA evaluation version 4.1 software. […] SPR signals obtained in the absence of competing peptides were used as a reference (100% binding) to normalize values obtained in the presence of peptides.
The SPR signal in the absence of competing peptides was used as a reference (100% binding).

CC[C@H](C)[C@H](NC(=O)[C@H](CCCNC(=N)N)NC(=O)[C@H](C)NC(=O)[C@H](Cc1ccc(O)cc1)NC(=O)[C@H](C)NC(=O)[C@H](CCCCN)NC(=O)[C@H](CCCCN)NC(=O)[C@H](CCCCN)NC(=O)[C@H](Cc1c[nH]c2ccccc12)NC(=O)[C@H](CCCCN)NC(=O)[C@H](CCSC)NC(=O)[C@H](CCCNC(=N)N)NC(=O)[C@H](CCCNC(=N)N)NC(=O)[C@H](CC(N)=O)NC(=O)[C@H](CCC(N)=O)NC(=O)[C@H](Cc1ccccc1)NC(=O)[C@H](Cc1c[nH]c2ccccc12)NC(=O)[C@@H](NC(=O)[C@H](CCCCN)NC(=O)[C@@H](NC(=O)[C@H](CCC(N)=O)NC(=O)[C@@H](N)CCCNC(=N)N)[C@@H](C)CC)[C@@H](C)CC)C(=O)NCC(=O)N[C@@H](CC(N)=O)C(=O)N[C@@H](CO)C(=O)N[C@@H](Cc1ccc(O)cc1)C(=O)N[C@@H](Cc1ccccc1)C(=O)N[C@@H](CCCCN)C(=O)O [Antp-TPR] (H-RQIKIWFQNRRMKWKKKAYARIGNSYFK-OH)
IC50 (HEK293T cells): > 100 µM
IC50 (PE cells): > 100 µM
IC50 (BT20 cells): 37.4 µM
IC50 (MDA-MB-231 cells): 56.9 µM
IC50 (BXPC3 cells): 44.8 µM
IC50 (A549 cells): 65.9 µM
histologic examination of liver, kidney, and lung (liver, kidney, and lung): equally unremarkable in the saline or hybrid peptide-treated mice; also recorded: did not cause serious damages to the main organs (liver, kidney, and lung) and normal tissues
abnormal behaviors or losing of appetite [1]: any abnormal behaviors or losing of appetite after the treatment with this peptide was not also observed
IC50 (MRC5 cells): > 100 µM
IC50 (Caki-1 cells): 47.9 µM
IC50 (LNcap cells): 56.7 µM
IC50 (OE19 cells): 33.4 µM
effect on viability of normal cells [2]: did not apparently reduce the viability; also recorded: less cytotoxic to normal cells

CC[C@H](C)[C@H](NC(=O)[C@H](CCCNC(=N)N)NC(=O)[C@H](C)NC(=O)[C@H](Cc1ccc(O)cc1)NC(=O)[C@H](C)NC(=O)[C@@H](N)CCCCN)C(=O)NCC(=O)N[C@@H](CC(N)=O)C(=O)N[C@@H](CO)C(=O)N[C@@H](Cc1ccc(O)cc1)C(=O)N[C@@H](Cc1ccccc1)C(=O)N[C@@H](CCCCN)C(=O)O [TPR]
effect on viability / cytotoxicity [3]: no effect on normal or cancer cells; also recorded: no cytotoxicity

KAYAAAGNSYFK [TPR mutant 1]
competition for interaction of Hsp90 with TPR2A domain of Hop [4]: did not demonstrate any protein interaction when analyzed at up to millimolar concentrations

KAYARIGNSGGG [TPR mutant 2, TPR with last three amino acids, Tyr-Phe-Lys, replaced with three Gly residues]
competition for interaction of Hsp90 with TPR2A domain of Hop [4]: did not demonstrate any protein interaction when analyzed at up to millimolar concentrations

RKFSAAIGYNKY [TPR scramble, scramble peptide of TPR]
competition for interaction of Hsp90 with TPR2A domain of Hop [4]: did not demonstrate any protein interaction when analyzed at up to millimolar concentrations

RQIKIWFQNRRMKWKKKAYAAAGNSYFK [Antp-TPR mutant 1]
selective antitumor activity [3]: did not show selective antitumor activities

RQIKIWFQNRRMKWKKKAYARIGNSGGG [Antp-TPR mutant 2]
selective antitumor activity [3]: did not show selective antitumor activities

RQIKIWFQNRRMKWKKRKFSAAIGYNKY [Antp-scramble, scramble peptide fused to Antennapedia helix III]
effect on viability / cytotoxicity [3]: no effect on these cell lines
